This experiment concerns P388 leukemia ip, CD2F1 mice, survival T/C. In words: NCI In Vivo Anticancer Drug Screen. Data for tumor model P388 Leukemia (intraperitoneal) in CD2F1 (CDF1) mice. The following applies: endpoint: median survival time, higher = longer survival. Put shortly:
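Mice carrying the transplanted tumor received test compound or vehicle. Survival was recorded in each group, and the value is the treated-group measurement divided by that of the vehicle-treated control group.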

Where [1] appears, read: dose: 12.5 mg/kg/injection, schedule: Q01DX009 (ip), vehicle: saline with Tween-80.
Where [2] appears, read: dose: 25.0 mg/kg/injection, schedule: Q01DX009 (ip), vehicle: saline with Tween-80.
Setting [3] is: dose: 50.0 mg/kg/injection, schedule: Q01DX009 (ip), vehicle: saline with Tween-80.
Setting [4] is: dose: 100.0 mg/kg/injection, schedule: Q01DX009 (ip), vehicle: saline with Tween-80.
Setting [5] is: dose: 50.0 mg/kg/injection, schedule: Q04DX003 (ip), vehicle: saline with Tween-80.
Setting [6] is: dose: 50.0 mg/kg/injection, schedule: Q01DX005 (ip), vehicle: Klucel (hydroxypropylcellulose) (HPC).
Setting [7] is: dose: 100.0 mg/kg/injection, schedule: Q01DX005 (ip), vehicle: Klucel (hydroxypropylcellulose) (HPC).
[8] abbreviates: dose: 200.0 mg/kg/injection, schedule: Q01DX005 (ip), vehicle: Klucel (hydroxypropylcellulose) (HPC).
The mark [9] stands for this setting: dose: 100.0 mg/kg/injection, schedule: Q04DX003 (ip), vehicle: saline with Tween-80.
[10] abbreviates: dose: 200.0 mg/kg/injection, schedule: Q04DX003 (ip), vehicle: saline with Tween-80.
Setting [11] is: dose: 60.0 mg/kg/injection, schedule: Q01DX005 (ip), vehicle: saline with Tween-80.
The mark [12] stands for this setting: dose: 120.0 mg/kg/injection, schedule: Q01DX005 (ip), vehicle: saline with Tween-80.
Where [13] appears, read: dose: 240.0 mg/kg/injection, schedule: Q01DX005 (ip), vehicle: saline with Tween-80.
Setting [14] is: dose: 100.0 mg/kg/injection, schedule: Q04DX002 (ip), vehicle: saline with Tween-80.
Setting [15] is: dose: 200.0 mg/kg/injection, schedule: Q04DX002 (ip), vehicle: saline with Tween-80.

Values joined by “and” are separate entries in the source; they are usually repeats but may differ in a detail not shown here. Equal values may be shown once. Toxic doses and inconclusive results are not listed.

The values below come from PubChem BioAssay AID330 (DTP/NCI, 2004).

`COc1cc(-c2c(C#N)c(OC)[nH]c(=O)c2C#N)cc(OC)c1OC`: the T/C under setting [1] is 105 % of control; the T/C under setting [2] is 102 % of control; the T/C under setting [3] was 102 % of control and 105 % of control; the T/C under setting [4] is 96 % of control; the T/C (dose: 200.0 mg/kg/injection, schedule: Q01DX009 (ip), vehicle: saline with Tween-80) is 95 % of control.

As for `CC1(C)CC2CCCCN2CO1` (stereo not given), the T/C (dose: 50.0 mg/kg/injection, schedule: Q01DX005 (ip), vehicle: saline) was 112 % of control and the T/C (dose: 100.0 mg/kg/injection, schedule: Q01DX005 (ip), vehicle: saline) is 108 % of control.

As for `CC1Cc2ccc3c(c2C(c2ccc4c(c2)OCO4)C1C)OCO3` (stereo not given), the T/C is 103 % of control (dose: 60.0 mg/kg/injection, schedule: Q01DX005 (ip), vehicle: Klucel + Tween-80); 97 % of control (dose: 120.0 mg/kg/injection, schedule: Q01DX005 (ip), vehicle: Klucel + Tween-80); 86 % of control (dose: 240.0 mg/kg/injection, schedule: Q01DX005 (ip), vehicle: Klucel + Tween-80).

Take `S=P(N1CCCCCC1)(N1CC1)N1CC1`: the T/C reads like this: (dose: 12.5 mg/kg/injection, schedule: Q04DX003 (ip), vehicle: saline with Tween-80) 109 % of control; (dose: 16.5 mg/kg/injection, schedule: Q01DX009 (ip), vehicle: saline) 108 % of control; (dose: 33.0 mg/kg/injection, schedule: Q04DX003 (ip), vehicle: saline sonified) 109 % of control; (dose: 37.5 mg/kg/injection, schedule: Q01DX009 (ip), vehicle: saline) 183 % of control; (dose: 50.0 mg/kg/injection, schedule: Q01DX009 (ip), vehicle: saline) 95 % of control; (dose: 50.0 mg/kg/injection, schedule: Q04DX003 (ip), vehicle: saline sonified) 118 % of control. Moreover, under setting [5], the T/C is 154 % of control.

Consider `CCOC(=O)CCC(=O)Oc1cccc2c1C(=O)c1c(OC(=O)CCC(=O)OCC)cccc1C2=O`, for which the T/C is, setting by setting: (dose: 60.0 mg/kg/injection, schedule: Q01DX005 (ip), vehicle: Klucel (hydroxypropylcellulose) (HPC)) 91 % of control; (dose: 120.0 mg/kg/injection, schedule: Q01DX005 (ip), vehicle: Klucel (hydroxypropylcellulose) (HPC)) 97 % of control; (dose: 240.0 mg/kg/injection, schedule: Q01DX005 (ip), vehicle: Klucel (hydroxypropylcellulose) (HPC)) 91 % of control.

`CCCCCCCC(=O)Nc1cc2c3c(c1)CCC(=O)N3CCC2`: the T/C runs as follows: under setting [6], 100 % of control; under setting [7], 100 % of control; under setting [8], 98 % of control.

Turning to `CC1=N/C(=C\c2ccccc2O)C(=O)O1`, the T/C is 104 % of control under setting [6], 98 % of control under setting [7] and 98 % of control under setting [8].

For the compound `CCCCCCCCCCCCCCCCOP(=O)([O-])OCC[N+](C)(C)C`, the T/C is 100 % of control (dose: 15.0 mg/kg/injection, schedule: Q01DX005 (ip), vehicle: saline); 100 % of control (dose: 30.0 mg/kg/injection, schedule: Q01DX005 (ip), vehicle: saline); 102 % of control and 103 % of control (dose: 60.0 mg/kg/injection, schedule: Q01DX005 (ip), vehicle: saline).

`CC(=O)SCC(C)CCl` (stereo not given): the T/C runs as follows: under setting [9], 100 % of control; under setting [10], 109 % of control.

For `OCC(O)C(O)C(O)C(O)CO` (stereo not given), the T/C is 107 % of control (dose: 400.0 mg/kg/injection, schedule: Q01DX009 (ip), vehicle: saline); 110 % of control (dose: 1200.0 mg/kg/injection, schedule: Q01DX009 (ip), vehicle: saline); 106 % of control (dose: 1600.0 mg/kg/injection, schedule: Q01DX005 (ip), vehicle: saline); 104 % of control (dose: 2400.0 mg/kg/injection, schedule: Q01DX005 (ip), vehicle: saline).

In the case of `CSc1ccc(C)cc1C(C)=O`, the T/C runs as follows: (dose: 50.0 mg/kg/injection, schedule: Q01DX005 (ip), vehicle: acetone) 93 % of control; (dose: 100.0 mg/kg/injection, schedule: Q01DX005 (ip), vehicle: acetone) 99 % of control; (dose: 200.0 mg/kg/injection, schedule: Q01DX005 (ip), vehicle: acetone) 100 % of control.

In the case of `COc1c(Cc2ccccc2O)c(O)cc(O)c1C(=O)CCc1ccccc1`, the T/C runs as follows: (dose: 0.25 mg/kg/injection, schedule: Q01DX009 (ip), vehicle: Klucel (hydroxypropylcellulose) (HPC)) 100 % of control; (dose: 0.5 mg/kg/injection, schedule: Q01DX009 (ip), vehicle: Klucel (hydroxypropylcellulose) (HPC)) 101 % of control; (dose: 1.0 mg/kg/injection, schedule: Q01DX009 (ip), vehicle: Klucel (hydroxypropylcellulose) (HPC)) 107 % of control; (dose: 2.0 mg/kg/injection, schedule: Q01DX009 (ip), vehicle: Klucel (hydroxypropylcellulose) (HPC)) 113 % of control; (dose: 4.0 mg/kg/injection, schedule: Q01DX009 (ip), vehicle: Klucel (hydroxypropylcellulose) (HPC)) 104 % of control; (dose: 8.0 mg/kg/injection, schedule: Q01DX009 (ip), vehicle: Klucel (hydroxypropylcellulose) (HPC)) 100 % of control. Also, the T/C (dose: 16.0 mg/kg/injection, schedule: Q01DX009 (ip), vehicle: Klucel (hydroxypropylcellulose) (HPC)) is 96 % of control and the T/C (dose: 32.0 mg/kg/injection, schedule: Q01DX009 (ip), vehicle: Klucel (hydroxypropylcellulose) (HPC)) is 100 % of control.

Regarding `Cc1ccc(/[N+]([O-])=C/c2ccccc2)cc1`, the T/C is 92 % of control under setting [11], 94 % of control under setting [12] and 89 % of control under setting [13].

With `O=C1N(c2ccccc2)C(=O)C2(N(c3ccccc3)CCN2c2ccccc2)N1c1ccccc1`, the T/C was 88 % of control under setting [14]; 89 % of control under setting [15]; 88 % of control (dose: 400.0 mg/kg/injection, schedule: Q04DX002 (ip), vehicle: saline with Tween-80).

With `CN(C)S(=O)(=O)c1ccccc1N=C=S`, the T/C under setting [3] is 117 % of control and the T/C under setting [4] was 117 % of control.

For the compound `COc1ccc(CN)cc1OC`, the T/C was 100 % of control (dose: 100.0 mg/kg/injection, schedule: Q01DX009 (ip), vehicle: saline) and 105 % of control (dose: 200.0 mg/kg/injection, schedule: Q01DX009 (ip), vehicle: saline).

As for `COc1ccc(N=Nc2c(C)[nH]n(C)c2=O)cc1`, the T/C is, setting by setting: under setting [14], 96 % of control; under setting [15], 97 % of control.

With `OCCOc1ccc2ccccc2c1-c1c(OCCO)ccc2ccccc12`, the T/C by setting is: under setting [5], 100 % of control; under setting [9], 100 % of control; under setting [10], 100 % of control; (dose: 400.0 mg/kg/injection, schedule: Q04DX003 (ip), vehicle: saline with Tween-80) 100 % of control.

Take `Nc1nnc2nc(CC(=O)c3ccccc3[N+](=O)[O-])c(CC(=O)c3ccccc3[N+](=O)[O-])nn12`: the T/C runs as follows: under setting [11], 100 % of control; under setting [12], 101 % of control; under setting [13], 100 % of control.

As to `CC(C(=O)O)N1C(=O)C=CC1=O` (stereo not given), the T/C by setting is: under setting [1], 97 % of control; under setting [2], 91 % of control.

Take `COc1cc(/C=N/NC(=O)CN(C)C)cc(OC)c1N(CCCl)CCCl`: the T/C by setting is: (dose: 6.25 mg/kg/injection, schedule: Q01DX009 (ip), vehicle: Klucel (hydroxypropylcellulose) (HPC)) 116 % of control; (dose: 25.0 mg/kg/injection, schedule: Q01DX009 (ip), vehicle: Klucel (hydroxypropylcellulose) (HPC)) 152 % of control; (dose: 50.0 mg/kg/injection, schedule: Q01DX009 (ip), vehicle: Klucel (hydroxypropylcellulose) (HPC)) 186 % of control and 189 % of control; (dose: 100.0 mg/kg/injection, schedule: Q01DX009 (ip), vehicle: Klucel (hydroxypropylcellulose) (HPC)) 93 % of control.

Regarding `Nc1cccc2c1-c1ccccc1C2=O`, the T/C runs as follows: (dose: 6.25 mg/kg/injection, schedule: Q01DX005 (ip), vehicle: saline with Tween-80) 98 % of control; (dose: 12.5 mg/kg/injection, schedule: Q01DX005 (ip), vehicle: saline with Tween-80) 98 % of control; (dose: 25.0 mg/kg/injection, schedule: Q01DX005 (ip), vehicle: saline with Tween-80) 92 % of control; (dose: 100.0 mg/kg/injection, schedule: Q01DX005 (ip), vehicle: saline with Tween-80) 92 % of control.
